Source: patent US8889670B2, “Heterocyclic compounds which modulate the CB2 receptor” (Boehringer Ingelheim International GmbH, priority 2009, dated 2014)
Where two headings read alike, the source gives them in different places.

Biological target: T1, human CB2R (Homo sapiens, UniProt P34972)
T1 construct: host or cells: CHO cells
Assay: CB2R mediated modulation of cAMP synthesis (forskolin-stimulated cAMP, CHO cells expressing human CB2R)
Type: cell-based
In short: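 CHO cells expressing human CB2R were treated 30 min at 37° C. with compounds in buffer containing 1 mM IBMX, 0.25% BSA and 10 uM forskolin; cAMP in lysates was measured by DiscoverX-XS kit.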

[1] = agonist EC50, inhibition of forskolin-stimulated cAMP synthesis, CHO cells expressing human CB2R, mean, read-out: CB2 CAMP @ EC50 nM (mean)

T1 sequence (P34972 whole entry): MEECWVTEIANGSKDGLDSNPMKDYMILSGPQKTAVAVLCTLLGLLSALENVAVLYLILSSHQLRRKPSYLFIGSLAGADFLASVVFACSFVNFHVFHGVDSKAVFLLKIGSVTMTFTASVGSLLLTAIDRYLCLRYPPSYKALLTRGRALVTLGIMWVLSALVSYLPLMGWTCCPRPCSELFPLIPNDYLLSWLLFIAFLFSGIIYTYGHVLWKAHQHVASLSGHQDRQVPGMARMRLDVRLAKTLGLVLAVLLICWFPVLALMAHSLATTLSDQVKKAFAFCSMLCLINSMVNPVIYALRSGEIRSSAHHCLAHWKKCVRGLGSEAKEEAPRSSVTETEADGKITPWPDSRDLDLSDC

Row | EC50 [1] [nM] | SMILES | EC50 [nM]
1 |  | CC(C)(C)c1coc(NC(=O)[C@@H]2CCCCN2CC2CCOCC2)n1 [(S)-1-(Tetrahydro-pyran-4-ylmethyl)-piperidine-2-carboxylic acid (4-tert-butyl-oxazol-2-yl)-amide] | 2.4
2 |  | CC(C)(C)c1cc(NC(=O)C2CCCN(S(=O)(=O)c3ccc(Cl)cc3)C2)no1 (centres unmarked) [1-(4-Chloro-benzenesulfonyl)-piperidine-3-carboxylic acid (5-tert-butyl-isoxazol-3-yl)-amide] | 12
3 | 8.6 | CCn1nc(NC(=O)[C@@H]2CCCCN2CC2CCOCC2)nc1-c1ccccc1 [(S)-1-(Tetrahydro-pyran-4-ylmethyl)-piperidine-2-carboxylic acid (1-ethyl-5-phenyl-1H-1,2,4-triazol-3-yl)-amide] | 
4 | 11 | O=C(Nc1nc(-c2ccccc2)ns1)[C@@H]1CCCCN1c1ncc(C(F)(F)F)cc1Cl [(S)-3′-Chloro-5′-trifluoromethyl-3,4,5,6-tetrahydro-2H-1,2′-bipyridinyl-2-carboxylic acid (3-phenyl-1,2,4-thiadiazol-5-yl)-amide] | 
5 |  | CC(C)(C)c1cc(NC(=O)[C@@H]2CCCCN2C(=O)N2CCC(F)(F)CC2)no1 [(S)-1-(4,4-Difluoro-piperidine-1-carbonyl)-piperidine-2-carboxylic acid (5-tert-butyl-isoxazol-3-yl)-amide] | 3.7
6 | 1.2 | O=C(Nc1nc(-c2ccccc2)ns1)[C@@H]1CCCCN1CC1CCOCC1 [(S)-1-(Tetrahydro-pyran-4-ylmethyl)-piperidine-2-carboxylic acid (3-phenyl-1,2,4-thiadiazol-5-yl)-amide] | 
7 |  | CC(C)(C)c1cc(NC(=O)[C@@H]2CCCCN2CC2CCOCC2)sn1 [(S)-1-(Tetrahydro-pyran-4-ylmethyl)-piperidine-2-carboxylic acid (3-tert-butyl-isothiazol-5-yl)-amide] | 0.3
8 |  | CC(C)(C)c1cc(NC(=O)[C@@H]2CCCCN2C(=O)C2CCC(F)(F)CC2)on1 [(S)-1-(4,4-Difluoro-cyclohexanecarbonyl)-piperidine-2-carboxylic acid (3-tert-butyl-isoxazol-5-yl)-amide] | 1
9 |  | CC(C)(C)c1cc(NC(=O)[C@@H]2CCCCN2C(=O)c2cccc(Cl)c2)no1 [(S)-1-(3-Chloro-benzoyl)-piperidine-2-carboxylic acid (5-tert-butyl-isoxazol-3-yl)-amide] | 44

Row | SMILES | EC50 [1] [nM] | EC50 [nM]
10 | CC(C)(C)OC(=O)N1CCCC[C@H]1C(=O)Nc1cc(C(C)(C)C)on1 [(S)-2-(5-tert-Butyl-isoxazol-3-ylcarbamoyl)-piperidine-1-carboxylic acid tert-butyl ester] | 279 | 
11 | CC(C)(C)c1cc(NC(=O)C2CCCN(C(=O)N3CCS(=O)(=O)CC3)C2)no1 (centres unmarked) [1-(1,1-Dioxo-1λ6-thiomorpholine-4-carbonyl)-piperidine-3-carboxylic acid (5-tert-butyl-isoxazol-3-yl)-amide] | 215 | 
